Measurements as given in patent US20240150719A1, “MAGNETIC SHEAR BIOREACTOR APPARATUS AND METHODS” (THE BOARD OF REGENTS OF THE UNIVERSITY OF TEXAS SYSTEM, priority 2021, published 2024).
“Also recorded” adds a separate entry of the source.

Legend:
[1] = test system: COX2 protein; assay: Western blot of COX2 protein in fluid shear stressed human MSCs; assay type: cell-based; conditions: BAY11-7085 10 μM; human MSC, 8 hours of fluid shear stress
Experimental: FIG. 11 illustrates representative Western blots showing increased intracellular COX2 protein, which is reduced by NF-kB antagonist BAY11-7085 (10 μM).
A pilot study was conducted to provide proof of principle that fluid shear stress can be used to condition stem cells, alter gene expression, and enhance functional activities. To exemplify the conditioning activity of shear stress of the type provided by the present system, but on a much smaller analytical scale, force (shear stress) was applied using custom fabricated slides or IBIDI® small-scale microfluidics channel slides obtained from IBIDI, LLC. (Verona, WI, USA). Human samples were harvested from bone marrow (BM), amniotic fluid (AF), or adipose (AD) tissue, processed for isolation and expansion of hMSC, and stored frozen. […] The number of live cells present was determined using trypan blue dye exclusion. Live cell counts were determined on a hemacytometer and the cells were resuspended to obtain the desired concentration for each assay (see Table 1). […]
Similarly it was determined utilizing commercially available ELISAs that the media from human MSCs cultures that had been subject to fluid shear stress also contained immunomodulatory proteins, such as prostaglandin E2. […]

[2] = test system: TNF-α secretion by splenocytes; assay: TNF-α cytokine suppression assay: MSCs in static co-culture with LPS- or PHA-activated splenocytes; assay type: cell-based, mouse; conditions: for ability of shear treated MSC to suppress TNF-α production: inhibitor 10 μM, six MSC donor lines, compared to Static Vehicle
Experimental: FIG. 12 illustrates TNF-αcytokine suppression assays that highlight functional enhancement of MSC immunomodulation. Human MSCs preconditioned by mechanical force (15 dyne/cm2 shear stress for 3 hours) are placed in static co-culture with lipopoly-saccharide (LPS) or phytohaemagglutinin (PHA)-activated splenocytes including macrophages, neutrophils, NK, B, and T cells. […] Lower values correspond to greater anti-inflammatory potency. hBM MSC, human bone marrow MSC; hAF MSC, amniotic fluid MSC; hAD MSC, adipose-derived MSC. P-values calculated by paired t-test, equal variance.
Asterisks indicate p<0.001 compared to Static Vehicle. n=6 indicates six different MSC donor lines included in data shown.
(§1) Similarly it was determined utilizing commercially available ELISAs that the media from human MSCs cultures that had been subject to fluid shear stress also contained immunomodulatory proteins, such as prostaglandin E2. In addition, Western blotting confirmed elevated protein levels (translation) of COX2, TSG6, and IL1RN. Actin protein expression levels, which are constant, were used as a control for baseline protein expression. […] It was also determined that this induction could be abrogated by the addition of 10 uM of the NF-kappa B antagonist BAY11-7085 (FIG. 11). Furthermore by utilizing commercially available ELISAs, it was determined that the media from human MSCs cultures that had been subject to fluid shear stress for as little as 3 hours had immunosuppressive activity, as evidenced by the 10-50% reduction in TNF-α when treated hMSCs were co-cultured with activated immune cells from the spleen (FIG. 12).

[3] = test system: human amniotic fluid MSC; assay: Priming agents combined with shear stress: anti-inflammatory signaling in human amniotic MSC line; assay type: cell-based
Experimental: FIG. 14 illustrates that priming agents complement shear-induced anti-inflammatory signaling. Darkened bars represent treatment combinations that indicate a substantial induction of the pathway by shear stress and cytokines (IFN-γ, 20 ng/ml; TNF-α, 50 ng/ml). In this low-performance human amniotic MSC line, TSG6 was induced by shear stress only. IDO was induced by IFN-γ only. hAF MSC, human amniotic fluid MSC.
as §1

Compound: CC(C)(C)c1ccc(S(=O)(=O)/C=C/C#N)cc1 [BAY11-7085]
- shear-induced intracellular COX2 protein (Western blot) [1]: abrogated; also recorded: reduced
- ability of shear treated MSC to suppress TNF-α production [2]: abrogate the positive effects of shear stress

Compound: COc1ccc2c(c1)c(CC(=O)O)c(C)n2C(=O)c1ccc(Cl)cc1 [Indomethacin]
- ability of shear treated MSC to suppress TNF-α production [2]: abrogate the positive effects of shear stress

Compound: CS(=O)(=O)Nc1ccc([N+](=O)[O-])cc1OC1CCCCC1 [NS-398]
- ability of shear treated MSC to suppress TNF-α production [2]: abrogate the positive effects of shear stress

Compound: CCCCC(C)(C)C(O)C=CC1C(O)CC(=O)C1CC=CCCCC(=O)O (stereo not shown) [dmPGE2, 16,16′-dimethyl prostaglandin E2]
- TNF-α production with ectopic dmPGE2 ([2]; dmPGE2 10 μM): reduced TNF-α to levels produced in the presence of sheared MSCs; also recorded: mimics MSC suppression

Compound: IFN-γ: cytokine used as priming agent
- IDO induction ([3]; IFN-γ 20 ng/ml, low-performance human amniotic MSC line): induced
- induction of COX2 and HMOX1 in sheared MSCs with added priming agent ([3]; addition of IFN-γ to sheared MSCs versus MSC not subject to shear): greater induction
